Values quoted from earlier work in patent US20110142757A1, “NOVEL COMPOUNDS AND THEIR USES IN DIAGNOSIS” (the University of Sydney, priority 2008, published 2011).

Test system: activated microglia
Settings: quinolinic acid-injected rat striatum

## CCC(C)N(C)C(=O)c1cc2ccccc2c(-c2ccccc2Cl)n1 (stereo not shown) [PK11195]
  Microglial activation and neuronal death: reduces microglial activation and neuronal death
